The numbers were not newly measured in publication PMC11573584, “Thanatin and vinyl sulfide analogues as narrow spectrum antimicrobial peptides that synergise with polymyxin B” (Frontiers in Pharmacology, 2024), which cites them from elsewhere.

The test system of data set [1] is S. aureus ATCC 25923. Conditions: non-cation adjusted media, ref Sinha et al. (2022), cited from earlier work. An excerpt: TABLE 1 Minimum Inhibitory Concentrations (MICs) of thanatin* (5) and similar analogues against a variety of pathogens. | column: Minimum inhibitory concentration (µM) / Thanatin ^a ^, ^b (1); Minimum inhibitory concentration (µM) / Thanatin M21F ^b (4) || TABLE 2 Minimum Inhibitory Concentrations (MICs) of thanatin* (5) and analogues (8–11) towards a variety of pathogens. | column: Minimum inhibitory concentration (µM) / 1 (Thanatin) ^a

The test system of data set [2] is E. coli BL21. Particulars: non-cation adjusted media, ref Sinha et al. (2022); cited from earlier work. An excerpt: (§1) TABLE 1 Minimum Inhibitory Concentrations (MICs) of thanatin* (5) and similar analogues against a variety of pathogens. | column: Minimum inhibitory concentration (µM) / Thanatin ^a ^, ^b (1); Minimum inhibitory concentration (µM) / Thanatin M21F ^b (4)

Data set [3] has as its system P. aeruginosa ATCC 27853. Particulars: non-cation adjusted media, ref Sinha et al. (2022); cited from earlier work.
Excerpt: as §1

For data set [4], the system named is E. coli ATCC 25922. Conditions: non-cation adjusted media, ref Wu et al. (2013); cited from earlier work. From the text: TABLE 1 Minimum Inhibitory Concentrations (MICs) of thanatin* (5) and similar analogues against a variety of pathogens. | column: Minimum inhibitory concentration (µM) / Thanatin ^a ^, ^b (1); Minimum inhibitory concentration (µM) / S-Thanatin ^a (3) || TABLE 2 Minimum Inhibitory Concentrations (MICs) of thanatin* (5) and analogues (8–11) towards a variety of pathogens. | column: Minimum inhibitory concentration (µM) / 1 (Thanatin) ^a

Data set [5] relates to P. aeruginosa PAO1. Particulars: ref Sinha et al. (2022); cited from earlier work. An excerpt: TABLE 2 Minimum Inhibitory Concentrations (MICs) of thanatin* (5) and analogues (8–11) towards a variety of pathogens. | column: Minimum inhibitory concentration (µM) / 1 (Thanatin) ^a

Read-outs that look alike come from different tables or passages of the source. Marks after values point to notes of the source that are not given here.

Regarding thanatin M21F [Thanatin M21F (4)], the “Minimum inhibitory concentration (MIC)” value in data set [1], in data set [2] and in data set [3] was 0.5 µM each time.

Thanatin [Thanatin (1)]: the “Minimum inhibitory concentration (MIC)” value in data set [4] was 3.2 ^a µM; in data set [1] (listed as 1 (Thanatin)), 8 µM; in data set [1], 8 ^b µM; in data set [2], 0.5 ^b µM; in data set [3], 1 ^b µM; in data set [5] it was 2 µM.
